From the NIST ThermoML archive (doi:10.1016/j.tca.2012.06.011)
Where “and” joins values, the source holds several entries; their conditions need not be identical. Identical values can stand only once. Numbers after ± are expanded uncertainties.

How the values were obtained:
[1] = 101 kPa, Liquid; for viscosity: Capillary tube (Ostwald / Ubbelohde) method; for mass density: Vibrating tube method
[2] = xn = mol fraction of the nth substance listed; conditions: 101 kPa, Liquid; for viscosity: Capillary tube (Ostwald / Ubbelohde) method; for mass density: Vibrating tube method

CCN(CC)CC [triethylamine]
[1]
Conditions | mass density [kg/m3] | viscosity [mPa·s]
298.15 K | 724.21 ± 0.25 | 0.366 ± 0.005
303.15 K | 719.54 ± 0.25 | 0.34 ± 0.005
308.15 K | 714.84 ± 0.25 | 0.334 ± 0.004
313.15 K | 710.1 ± 0.25 | 0.331 ± 0.004
323.15 K | 700.71 ± 0.25 | 0.298 ± 0.004

CN1CCNCC1 [N-methylpiperazine]
[1]
Conditions | mass density [kg/m3] | viscosity [mPa·s]
298.15 K | 899.28 ± 0.13 | 1.854 ± 0.024
303.15 K | 894.9 ± 0.13 | 1.583 ± 0.02
308.15 K | 890.5 ± 0.13 | 1.409 ± 0.017
313.15 K | 886.07 ± 0.13 | 1.258 ± 0.015
323.15 K | 877.28 ± 0.13 | 1.064 ± 0.013

C1C[C@@H]2[C@H]3CC[C@H](C3)[C@@H]2C1 [exo-tetrahydrodicyclopentadiene] + CN1CCNCC1
[2], x2 = 0
Conditions | mass density [kg/m3] | viscosity [mPa·s]
298.15 K | 931.29 ± 0.76 | 2.8 ± 0.043
303.15 K | 927.38 ± 0.75 | 2.549 ± 0.039
308.15 K | 923.45 ± 0.75 | 2.332 ± 0.036
313.15 K | 919.54 ± 0.75 | 2.124 ± 0.033
323.15 K | 911.7 ± 0.74 | 1.811 ± 0.028

CCN(CC)CC [triethylamine] + C1C[C@@H]2[C@H]3CC[C@H](C3)[C@@H]2C1
[2], x1 = 1
Conditions | mass density [kg/m3] | viscosity [mPa·s]
298.15 K | 724.21 ± 0.25 | 0.366 ± 0.005
303.15 K | 719.54 ± 0.25 | 0.34 ± 0.005
308.15 K | 714.84 ± 0.25 | 0.334 ± 0.004
313.15 K | 710.1 ± 0.25 | 0.331 ± 0.004
323.15 K | 700.71 ± 0.25 | 0.298 ± 0.004

C1C[C@@H]2[C@H]3CC[C@H](C3)[C@@H]2C1 [exo-tetrahydrodicyclopentadiene]
[1]
Conditions | mass density | viscosity [mPa·s]
298.15 K | 931.29 ± 0.76 kg/m3 | 2.8 ± 0.043
303.15 K | 927.38 ± 0.75 kg/m3 | 2.549 ± 0.039
308.15 K | 923.45 ± 0.75 kg/m3 and 923.46 ± 0.75 kg/m3 | 2.332 ± 0.036
313.15 K | 919.54 ± 0.75 kg/m3 | 2.124 ± 0.033
323.15 K | 911.7 ± 0.74 kg/m3 | 1.811 ± 0.028
